A word on the solubility: it is the dissolved amount per volume that the medium holds. In general, viability refers to a per cent measure of how many cells are alive, often set against a control. The term AUC(0-inf) denotes total exposure, with the tail of the curve extrapolated. A higher AUC(0-inf) goes with more exposure. The term Cmax denotes the highest concentration seen after dosing. As usually defined, the Tmax is the time at which the peak concentration occurs. As usually defined, the half-life is the time in which the quantity being followed falls by half. Lower therefore signals rapid decline. A word on the Papp A→B: it is the apparent permeability from the apical to the basolateral side of a cell layer. One may read the Papp B→A as the apparent permeability from the basolateral to the apical side of a cell layer.

Values after ≈ are worked out from the molar mass of the structure shown.

Series [1] is described as follows: Saturation solubility in distilled water. The conditions noted are these: 37 °C, saturated solution. Format: physicochemical. The method, then: Excess KME and KME/HP-β-CD were added to distilled water to obtain a supersaturated solution (Arya & Raghav [2021]). The samples were shaken at 37 °C for 24 h and 100 rpm. After centrifugation, the supernatants were filtered through a 0.45 μm membrane and the solubility was determined (n = 3) with the validated HPLC method.

In series [2] the test system is rat intestines (everted gut sac: duodenum, jejunum, ileum, colon). Kind of series: Ex vivo everted gut sac experiments. It is filed as in vitro ADME. The procedure: The protocol of the animal study was approved by the Institutional Animal Care and Use Committee of Fujian Medical University (permit number: SYXK (Min) 2018-0001), China. Male SD rats weighing 220–250 g were fasted overnight before the experiment and with free access to water. The everted gut sac method was carried out as in previously published reports with minor modifications (Tambe et al. [2019]). Rats were anesthetized and sacrificed, and the intestinal segments of interest were identified and dissected (duodenum, starting 1 cm from the stomach; jejunum, 10–18 cm from the stomach; ileum, starting 8 cm above the cecum; colon, 5 cm below the cecum) (Rong et al. [2013]).
Each obtained intestinal segment was immediately washed with ice-cold Krebs-Ringer (K-R) solution, and then turned out with a glass rod, and one end was ligated with a thread. After inserting the glass tube, the other open end of the everted sacs was also tightened. Then blank K-R solution (2.5 mL) was added to the everted gut sacs. The everted segments were preincubated in 50 mL of K-R solution at 37 °C for 5 min. […] After the experiment, the length of each intestinal segment was accurately measured, and the concentration of KME was measured by HPLC. The apparent permeability coefficient (Papp) values of KME were calculated by the following equation (Tambe et al. [2019]): […]

For series [3] the following is noted: introduction, no reference given; cited from earlier work.
A short description of series [4]: In vitro drug release, dialysis bag diffusion method. It is filed as physicochemical. The conditions noted are these: pH 6.8 phosphate buffer, 37 °C. The method, then:
A dialysis bag diffusion method was used to evaluate in vitro drug release profiles of both KME and KME/HP-β-CD (Zhao et al. [2021]). 2 mg of KME was dispersed in water, and then transferred to a dialysis bag and placed in a beaker containing 40 mL of pH 6.8 phosphate buffer. The study was carried out at 37 ± 0.5 °C and a magnetic stirring speed of 100 rpm. Aliquots of approximately 4 mL were taken out at predetermined time intervals (10 min, 15 min, 30 min, 1 h, 2 h, 3 h, and 6 h) and replaced by the same volume of fresh buffer to maintain a constant volume of dissolution media during sampling. The samples were filtered and analyzed by HPLC.

The conditions of series [5]: previously investigated in our laboratory; cited from earlier work.
Series [6] can be described thus: Cell viability study (CCK-8 assay). As to conditions: human, Caco-2, 5–100 μg/mL, read-out: viability of Caco-2 cells. Format: cell-based. The procedure: The cytotoxicity of KME and KME/HP-β-CD was evaluated in Caco-2 cells using the cell counting kit-8 (CCK-8) assay. Caco-2 cells were cultured in DMEM containing 20% FBS and incubated at 37 °C with 5% CO2. Caco-2 cells (1 × 10^4 cell/well) were seeded in 96-well plates and incubated for 24 h. Then, 100 μL of fresh medium containing KME or KME/HP-β-CD (5–100 µg/mL) was added. After 24 h, the culture medium was changed with CCK-8 solution and the samples were incubated for another 2 h. The optical density (OD) was read at 490 nm (BioTek Instruments, Winooski).

Series [7] in a line: Phase solubility study (Higuchi and Connors). It is filed as physicochemical. The procedure: The phase solubility studies were carried out according to the method of Higuchi and Connors (Jansook et al. [2018]; Higuchi & Connors [1965]). Briefly, an excess of KME was added to 200 μL aqueous solutions of different HP-β-CD concentrations (1, 2, 4, 6, 8, and 10 mM). All samples were shaken at 25 °C and 100 rpm for 72 h until reaching equilibrium. Subsequently, the samples were withdrawn and filtered through a 0.45 µm membrane to remove undissolved KME. The concentration of KME in the HP-β-CD solutions was determined by an HPLC method, and the analyses were performed in triplicate (n = 3). The apparent stability constants (Ks) were calculated by the following equation (Nair et al. [2014]; Pinto et al. [2020]): Ks = slope/So (1-slope), where So represents the intrinsic solubility of the drug, and the slope is the slope of the linear KME-CD phase solubility diagram.

A short description of series [8]: In vivo pharmacokinetics study after oral administration. As to conditions: oral gavage 12 mg/kg, male SD rats, n = 6; for AUC0–12 (AUC0-t): 12 mg/kg. The method, then: The in vivo pharmacokinetic study was approved by the Institutional Animal Ethical Committee, Fujian Medical University, China. Male SD rats (200 ± 20 g) have fasted for 12 h with free access to water before oral administration. The rats were divided randomly into two groups (n = 6) and received KME or KME/HP-β-CD by oral gavage at a drug dose of 12 mg/kg. The KME powder and KME/HP-β-CD were dispersed in deionized water containing 0.1% sodium carboxymethylcellulose (CMC-Na). Blood samples were collected at predetermined intervals (0.05, 0.1, 0.16, 0.5, 1, 3, 6, 9, and 12 h) from the retroorbital venous sinus, and placed in heparinized anticoagulant tubes. After centrifugation at 4,000 rpm for 10 min at 4 °C, the plasma was separated and stored at −80 °C until UPLC-MS/MS analysis.
Plasma samples were prepared by the protein precipitation method (Chen et al. [2013]). Briefly, an aliquot of 50 μL plasma sample and 200 μL of acetonitrile containing 10 ng/mL gelsemine (internal standard, IS) were added to a centrifuge tube. The mixture was vortexed for 5 min and centrifuged at 18,000 rpm for 10 min at 4 °C. Then the supernatant was transferred and injected into the UPLC-MS/MS system for analysis. Chromatographic separation was performed using a UPLC instrument (Agilent 1290, Agilent Technologies, USA), equipped with a mass spectrometer (QTRAP® 5500, AB SCIEX, USA). The mass spectrometer detector was performed with multiple reactions monitoring scan mode at m/z 307.2 → 180.1 for KME and m/z 323.1 → 236.1 for IS. More detailed information about UPLC-MS/MS is provided in the supplementary material. The main pharmacokinetic parameters such as T1/2, Cmax, Tmax, and area under the curve (AUC), were determined using the non-compartmental model with DAS 3.2.1 software. The relative bioavailability F was calculated by the following equation: F(%) =(AUC0–t (inclusion complexes)/AUC0–t(KME)) × 100%

Details of series [9]: method as in Wang et al. [2019]. The conditions noted are these: from parameters of published reports; ref Wang et al. [2019]; cited from earlier work.
For series [10] the following is noted: previously investigated in our laboratory; cited from earlier work. The source holds these as a separate data set.
Series [11] can be described thus: Caco-2 permeability study. As to conditions: human, 50 μg/mL KME equivalent. It is filed as in vitro ADME. The procedure: Caco-2 cells were seeded at a density of 5 × 10^5 cells/well on top of 12-well Transwell® polycarbonate filters, and cultured in a 5% CO2 incubator at 37 °C for 21 days. The medium was changed every 2 days in the first week, and then every day for the next two weeks. At the end of 21 days, a Millicell-ERS epithelial voltmeter (Merck, USA) was used to analyze the transepithelial electrical resistance (TEER) value of Caco-2 cells. Only monolayers with TEER values higher than 600 Ω·cm^2 can be used in subsequent transport experiments (Chen et al. [2018]).
To investigate the permeability of KME and KME/HP-β-CD inclusion complexes in Caco-2 cells, the apical to basal (A-B) and basal to apical (B-A) transport of KME was measured. After preincubation for 30 min with blank HBSS, 0.5 mL of HBSS medium containing KME or KME/HP-β-CD (equivalent KME concentration of 50 μg/mL) was added to the apical side in the A-B direction experiments, and 1.5 mL of fresh HBSS was added to the basolateral side of the inserts as the acceptor phase. In contrast, for the B-A direction experiments, 1.5 mL of HBSS medium containing KME or KME/HP-β-CD (equivalent KME concentration of 50 μg/mL) was added to the basolateral side, and 0.5 mL of fresh HBSS was added to the apical side of the inserts as the acceptor phase. The plates were incubated in a shaker at 37 °C. 100 μL of the sample were taken from the acceptor side at predetermined time intervals (30, 60, 90, and 120 min) and replaced by the same volume of fresh HBSS to maintain a constant volume. Finally, the obtained samples were analyzed by HPLC. The Papp values (cm/s) were determined using the following equation (McCartney et al. [2019]; Patel & Sawant [2019]): Papp=(dQ/dt)/(A×C0),where dQ/dt is the steady−state flux, A is the surface area of the monolayer (1.12 cm^2), and C0 is the donor concentration (50 μg/mL). TEER (Ω·cm^2)=(TEER (Ω) –TEER blank (Ω)) × A(cm^2)
Here, TEER (Ω), Caco-2 monolayers; TEER blank (Ω), the insert without cells; A (cm^2), 1.12 cm^2.
(Caco-2 cells form a polarised layer with tight junctions and transporters.)

For the compound `C=C[C@@]12CN(C)[C@H]3C[C@]14C(=Nc1ccccc14)[C@H]1C[C@@H]2[C@@H]3CO1` [KME, Koumine], in [1], the solubility at 24 h amounted to 700 µg/mL (≈ 2280 µM). Besides, the “order of absorption flux in the intestinal segments” value in [2] (100 μg/mL, up to 120 min) is “ileum > duodenum > jejunum > colon”. Moreover, the “KME absorption in colon segment with verapamil versus without” value in series [2] (colon, verapamil 100 μg/mL (inhibitor of P-gp)) was “no significant difference”. Moreover, in series [3], the solubility in water is below 1000 µg/mL. In series [4] (1 h), the “release rate in the first 1 h” value was found to be 40%. Moreover, the “release rate within 6 h” value in [4] (6 h) is 70%. The “absolute bioavailability (Fabs) in beagle dogs” value in series [5] is 5.67%. Also, in series [6], the viability at 24 h was above 90%. Besides, in [7] (10 mM HP-β-CD aqueous solution, 25 °C, 72 h, read-out: solubility of KME at 10 mM HP-β-CD), the solubility at 72 h turned out to be 1810 µg/mL (≈ 5910 µM). Further, in series [7] (10 mM HP-β-CD versus water), the “increase of KME solubility at 10 mM HP-β-CD” value was 2.59 fold. Further, the solubility thermodynamic at 72 h in series [7] (water, 25 °C, 72 h, no HP-β-CD, read-out: equilibrium solubility of KME in water) was found to be 700 ± 20 µg/mL (≈ 2280 µM). Further, the “AUC0–12 (AUC0-t)” value in series [8] (listed as KME suspension) came to 72.50 ± 15.25 ng·h/mL. Also, in series [8] (listed as Raw KME), the “AUC0–12 (AUC0-t)” value worked out at 26.48 ± 17.80 ng·h/mL. Also, in [8] (rat, plasma), the AUC(0-inf) is 30.2 ± 16.6 ng·h/mL, the concentration peaked (Cmax) at 22.8 ± 15.6 ng/mL, the Tmax stood at 19.8 ± 12 min and the half-life is 51.6 ± 7.2 min. Moreover, the “absolute bioavailability (Fabs)” value in [9] is on record as 1%. Moreover, the “absolute bioavailability (Fabs) in rats” value in series [10] was 14.30%. Also, in series [11] (read-out: efflux ratio (B-A permeability/A-B permeability)), the efflux ratio at 120 min, 50 µg/mL stood at 1.74. Also, the Papp A→B at 120 min, 50 µg/mL in series [11] (apical to basal, 120 min) is 7.78 ± 2.01 ×10⁻⁶ cm/s. Besides, the Papp B→A at 120 min, 50 µg/mL in [11] (basal to apical, 120 min) turned out to be 13.5 ± 1.72 ×10⁻⁶ cm/s.
